Structures can show the parent of a compound that is named as a salt.
test system: SMN2 promoter; test: SMN2 promoter assay (β-lactamase reporter) in NSC-34 cells; assay type: cell-based, mouse; settings: Mus musculus, SMN2 promoter driving β-lactamase, 12 point dose curve, average of 3-6 dose curve experiments
Text: All compounds were screened using an in vitro based SMN2 promoter assay. We used NSC-34 cells, a hybrid cell line between mouse spinal cord cells and mouse neuroblastoma cells. NSC-34 cells harbor an expression plasmid containing a 3.4 kb promoter fragment of the SMN2 gene driving β-lactamase expression.
[…] […] CCF2-AM diffuses across the plasma membrane and is converted into an active β-lactamase substrate by cytoplasmic esterase. […] The fold induction is proportional to the extent of β-lactamase produced and in turn proportional to SMN2 promoter activation for a given compound relative to vehicle (DMSO) control. […] These values are used to rank activities of the compounds and derive structure activity relationship.

Molecule | EC50 [µM]
Nc1nc(N)c2c(OCC3CC4CCC3C4)cccc2n1 (stereo not drawn) [Example 151, 5-(Bicyclo[2.2.1]hept-2-ylmethoxy)quinazoline-2,4-diamine] | < 1
Nc1nc(N)c2c(-c3cccc(Cl)c3)cccc2n1 [Example 91, 5-(3-Chlorophenyl)-quinazoline-2,4-diamine] | < 1
CN1CCCCC1COc1cccc2nc(N)nc(N)c12 (stereo not drawn) [Example 117, 5-(1-Methyl-piperidin-2-ylmethoxy)-quinazoline-2,4-diamine] | < 1
Nc1nc(N)c2c(OCc3ccc4c(c3)OCO4)cccc2n1 [Example 54, 5-(Benzo[1,3]dioxol-5-ylmethoxy)quinazoline-2,4-diamine] | < 1
Nc1nc(N)c2c(OCc3ccc(I)cc3)cccc2n1 [Example 4, 5-(4-Iodobenzyloxy)quinazoline-2,4-diamine] | < 1
Nc1nc(N)c2c(O[C@H]3CCc4ccccc43)cccc2n1 [Example 41, 5-((S)-Indan-1-yloxy)quinazoline-2,4-diamine] | 5 to 10
Nc1nc(N)c2c(OC3(c4cccc(Cl)c4)CCCCC3)cccc2n1 [Example 145, 5-[1-(3-Chlorophenyl)cyclohexyloxy]quinazoline-2,4-diamine] | 1 to 5
Nc1nc(N)c2c(OCc3cc(F)ccc3F)cccc2n1 [Example 84, 5-(2,5-Difluorobenzyloxy)-quinazoline-2,4-diamine] | < 1
Nc1nc(N)c2c(OCC3CCCCC3)cccc2n1 [Example 17, 5-(Cyclohexylmethoxy)quinazoline-2,4-diamine] | 1 to 5
Nc1nc(N)c2c(O[C@@H]3CCc4ccc(Cl)cc43)cccc2n1 [Example 150, 5-((R)-6-Chloroindan-1-yloxy)quinazoline-2,4-diamine] | < 1
CC(Oc1cccc2nc(N)nc(N)c12)c1ccccc1Cl (stereo not drawn) [Example 104, 5-[1-(2-Chlorophenyl)ethoxy]-quinazoline-2,4-diamine] | < 1
Nc1nc(N)c2c(OCc3cc(F)cc(F)c3)cccc2n1 [Example 79, 5-(3,5-Difluorobenzyloxy)quinazoline-2,4-diamine] | < 1
C[C@@H](Oc1cccc2nc(N)nc(N)c12)c1ccccc1 [Example 56, 5-((R)-1-Phenylethoxy)quinazoline-2,4-diamine] | < 1
COC(COc1cccc2nc(N)nc(N)c12)c1ccc2c(c1)OCO2 (stereo not drawn) [Example 169, 5-(2-Benzo[1,3]dioxol-5-yl-2-methoxyethoxy)quinazoline-2,4-diamine hydrochloride] | < 1
CC(Oc1cccc2nc(N)nc(N)c12)c1cccc(F)c1 (stereo not drawn) [Example 93, 5-[1-(3-Fluorophenyl)-ethoxy]-quinazoline-2,4-diamine] | < 1
CC(Oc1cccc2nc(N)nc(N)c12)c1cccc(I)c1 (stereo not drawn) [Example 63, 5-[1-(3-Iodophenyl)-ethoxy]-quinazoline-2,4-diamine] | < 1
Nc1nc(N)c2c(Cc3ccc(Cl)cc3)cccc2n1 [Example 25, 5-(4-Chlorobenzyl)Quinazoline-2,4-Diamine] | < 1
Nc1nc(N)c2c(OCc3cccc(Cl)c3)cccc2n1 [Example 5, 5-(3-Chlorobenzyloxy)quinazoline-2,4-diamine] | < 1
Cc1cccc(S(=O)(=O)c2cccc3nc(N)nc(N)c23)c1 [Example 60, 5-(Toluene-3-sulfonyl)-quinazoline-2,4-diamine] | 1 to 5
Nc1nc(N)c2c(OC3CC4CCC3C4)cccc2n1 (stereo not drawn) [Example 124, 5-(Bicyclo[2.2.1]hept-2-yloxy)-quinazoline-2,4-diamine] | < 1
Nc1nc(N)c2c(OCc3ccc(C(F)(F)F)cc3)cccc2n1 [Example 100, 5-(4-Trifluoromethylbenzyloxy)-quinazoline-2,4-diamine] | < 1
Nc1nc(N)c2c(OCc3cccnc3)cccc2n1 [Example 11, 5-(Pyridin-3-ylmethoxy)quinazoline-2,4-diamine] | < 1
COc1cccc(COc2cccc3nc(N)nc(N)c23)c1 [Example 143, 5-(3-Methoxybenzyloxy)quinazoline-2,4-diamine] | < 1
Nc1nc(N)c2c(OCC3CCNCC3)cccc2n1 [Example 116, 5-(Piperidin-4-ylmethoxy)-quinazoline-2,4-diamine hydrochloride] | < 1
CC(CC(O)(c1ccc(Cl)cc1)c1ccc(Cl)cc1)Oc1cccc2nc(N)nc(N)c12 (stereo not drawn) [Example 168, 1,1-Bis-(4-chlorophenyl)-3-(2,4-diaminoquinazolin-5-yloxy)butan-1-ol] | 1 to 5
CC(C)(Oc1cccc2nc(N)nc(N)c12)c1cccc(Cl)c1 [Example 140, 5-[1-(3-Chlorophenyl)-1-methylethoxy]quinazoline-2,4-diamine] | 1 to 5

Molecule | EC50 [µM]
Nc1nc(N)c2c(OCc3ccccc3I)cccc2n1 [Example 75, 5-(2-Iodo-benzyloxy)-quinazoline-2,4-diamine] | < 1
CC(Oc1cccc2nc(N)nc(N)c12)c1cccc2ccccc12 (stereo not drawn) [Example 111, 5-(1-Naphthalen-1-yl-ethoxy)-quinazoline-2,4-diamine] | 1 to 5
Nc1nc(N)c2c(OCc3ccc(Br)cc3)cccc2n1 [Example 62, 5-(4-Bromobenzyloxy)-quinazoline-2,4-diamine] | < 1
Nc1nc(N)c2c(OCC3CC4C=CC3C4)cccc2n1 (stereo not drawn) [Example 122, 5-(Bicyclo[2.2.1]hept-5-en-2-ylmethoxy)-quinazoline-2,4-diamine] | < 1
Nc1nc(N)c2c(OCC3CCCCO3)cccc2n1 (stereo not drawn) [Example 55, 5-(Tetrahydropyran-2-ylmethoxy)quinazoline-2,4-diamine] | < 1
CC(Oc1cccc2nc(N)nc(N)c12)c1cc(F)cc(F)c1 (stereo not drawn) [Example 107, 5-[1-(3,5-Difluorophenyl)ethoxy]quinazoline-2,4-diamine] | < 1
Cc1ccc(COc2cccc3nc(N)nc(N)c23)cc1 [Example 1, 5-(4-Methylbenzyloxy)quinazoline-2,4-diamine] | < 1
COc1ccc(COc2cccc3nc(N)nc(N)c23)cc1OC [Example 65, 5-(3,4-Dimethoxybenzyloxy)-quinazoline-2,4-diamine] | < 1
Nc1nc(N)c2c(OCc3cc(Cl)c(Cl)cc3CO)cccc2n1 [Example 70, [4,5-Dichloro-2-(2,4-diaminoquinazolin-5-yloxymethyl)phenyl]methanol hydrochloride] | < 1
Nc1nc(N)c2c(OCc3ccc(Cl)cc3)cccc2n1 [Example 2, 5-(4-Chlorobenzyloxy)quinazoline-2,4-diamine] | < 1
Nc1nc(N)c2c(OC(C(=O)O)c3ccc(Cl)cc3)cccc2n1 (stereo not drawn) [Example 115, (4-Chlorophenyl)-(2,4-diamino-quinazolin-5-yloxy)-acetic acid] | < 1
Nc1nc(N)c2c(COc3ccc(Cl)cc3)cccc2n1 [Example 43, 5-(4-Chlorophenoxymethyl)quinazoline-2,4-diamine] | < 1
Nc1nc(N)c2c(OCC(O)c3ccccc3)cccc2n1 (stereo not drawn) [Example 157, 2-(2,4-Diaminoquinazolin-5-yloxy)-1-phenyl-ethanol] | < 1
Nc1nc(N)c2c(N3CCCCC3)cccc2n1 [Example 59, 5-(Piperidin-1-yl)quinazoline-2,4-diamine] | < 1
Nc1nc(N)c2c(OCC3CCN(C(=O)c4cccc(Cl)c4)CC3)cccc2n1 [Example 134, (3-Chlorophenyl)-[4-(2,4-diamino-quinazolin-5-yloxymethyl)-piperidin-1-yl]-methanone] | < 1
C[C@H](Oc1cccc2nc(N)nc(N)c12)c1ccc2ccccc2c1 [Example 109, 5-((S)-1-Naphthalen-2-yl-ethoxy)-quinazoline-2,4-diamine] | < 1
CCCCCCCCOc1cccc2nc(N)nc(N)c12 [Example 38, 5-Octyloxyquinazoline-2,4-diamine] | < 1
Nc1nc(N)c2c(OCc3ccc(F)cc3F)cccc2n1 [Example 85, 5-(2,4-Difluorobenzyloxy)-quinazoline-2,4-diamine] | < 1
CC(Oc1cccc2nc(N)nc(N)c12)C1CCCCC1 (stereo not drawn) [Example 126, 5-(1-Cyclohexyl-ethoxy)-quinazoline-2,4-diamine] | < 1
Nc1nc(N)c2c(OCc3cccc(Br)c3)cccc2n1 [Example 76, 5-(3-Bromobenzyloxy)quinazoline-2,4-diamine] | < 1
Nc1nc(N)c2c(OCc3ccccn3)cccc2n1 [Example 36, 5-(Pyridin-2-ylmethoxy)Quinazoline-2,4-diamine] | < 1
Nc1nc(N)c2c(COc3cccc(Cl)c3)cccc2n1 [Example 158, 5-(3-Chlorophenoxymethyl)quinazoline-2,4-diamine] | < 1
CC(Oc1cccc2nc(N)nc(N)c12)c1ccc2c(c1)OCO2 (stereo not drawn) [Example 64, 5-(1-Benzo[1,3]-dioxol-5-yl-ethoxy)-quinazoline-2,4-diamine] | < 1
Nc1nc(N)c2c(COc3ccccc3I)cccc2n1 [Example 159, 5-(2-Iodophenoxymethyl)quinazoline-2,4-diamine] | < 1
Nc1nc(N)c2c(OCc3cc(Cl)ccc3CO)cccc2n1 [Example 89, [4-Chloro-2-(2,4-diamino-quinazolin-5-yloxymethyl)-phenyl]-methanol hydrochloride] | < 1

same assay, conditions: SMN2 promoter driving β-lactamase, 12 point dose curve, average of 3-6 dose curve experiments

Molecule | EC50 [µM]
2-(2,4-Diaminoquinazolin-5-yloxy)-1-(4-fluorophenyl)ethanol [Example 167] | < 1
5-((1S,2R,5S)-6,6-Dimethylbieyclo[3.1.1]hept-2-ylmethoxy)quinazoline-2,4-diamine [Example 130] | < 1
Nc1nc(N)c2c(OCC3CCN(C(=O)c4cccc(I)c4)CC3)cccc2n1 [Example 135, [4-(2,4-Diaminoquinzolin-5-yloxymethyl)piperidin-1-yl]-(3-iodophenyl)methanone] | < 1
